The subject of one data set is U343 glioma cells. Kind of data set: U343 CDX mouse model. Format: in vivo. The note with it: intravenous injection every 2 or 3 days from day 14. The procedure:
(§1) Animal experiments were conducted in accordance with ethical guidelines, and all protocols were approved by the Institutional Animal Care and Use Committee under Hanyang University (approval numbers, 2014‐0016A, 2018‐0049A, 2018‐0207A, and 2019‐0169A), Chung‐Ang University (approval number, 2015‐00022), Chungbuk University (approval number, CBNUA‐1072‐17‐02), and Konkuk University (approval number, KU17130). To establish xenograft mice models, Hep3B, A431, U343, and PC9 cells were subcutaneously injected into the flank of Balb/c nude mice. For the MDA‐MB‐231 (LM1) cell line, it was implanted into the mammary fat pad of immunodeficient mice (NPG mice). […] Tumor volume was calculated using the formula of length × width^2)/2. […] The in vivo administration amount was determined based on the concentration of ACP52C confirmed at the cellular level, which was 2 µM. […] For ACP52C derivatives, the amount was adjusted to ensure a similar molar quantity of peptide injection, taking their molecular weights into account. For instance, in the case of ACP52CGK, ≈1.67 times the quantity was used compared to ACP52C to achieve an equivalent molar quantity. […] Hematoxylin and eosin (H&E)‐stained tissue sections were analyzed and photographed, and the representative histological images were recorded. […]

For data set [1], the system named is human stem cells (hMSCs and hESCs), mouse embryonic fibroblasts (MEFs), and human non‐transformed cell lines (BEAS‐2B and MCF10A). Kind of data set: MTT growth inhibition in stem and non‐transformed cells. Format: cell-based. The following applies: concentration of 1 mM.
Method: Various cell lines were treated with peptides, either alone or in combination with the CASP2 inhibitor (Ac‐VDVAD‐CHO; Enzo ALX‐260‐058‐M001) at various concentrations for 4 days. Cell viability was assessed on day 2 or day 4 using MTT (3‐(4,5‐dimethylthiazol‐2‐yl)‐2,5‐diphenyltetrazolium bromide; Sigma–Aldrich, M2128) assay. In brief, fresh cells were seeded in flat‐bottomed 96‐well tissue culture plates at appropriate concentrations for each cell line per well using complete culture medium. The cells were incubated in 100 µL of culture medium containing various concentration of chemicals or peptides at 37 °C for 0 to 96 h. A solution of MTT (5 mg mL^−1) was added to the culture medium, and the cells were further incubated at 37 °C for an additional 3 h. The MTT medium was then removed, and the formazan crystals were dissolved in DMSO (100 µL per well). The formazan concentration was measured spectrophotometrically at 490 nm using a Varioskan Flash Spectral Scanning Multimode Reader (Thermo Scientific Korea). Nonlinear regression curves for growth inhibition and GI50 values for each cell line were estimated from independent replicates using the Prism (version 6) software (GraphPad Software Inc.)
In data set [2] the test system is normal male and female mice. Briefly: In vivo toxicity test of ACP52C. The note with it: ICR mice, 100 or 1000 mg kg^−1 intravenously, once or twice with four‐day interval; H&E of major organs. Further details: species or system mouse. The procedure:
To assess the toxicity of ACP52C, twelve 6‐weeks‐old ICR mice (six males and six females) were divided into three groups, each containing two mice: one group received a saline, another received 100 mg kg^−1 of ACP52C, and the third received 1000 mg kg^−1 of ACP52C. For each group, one mouse was intravenously injected once, and the other one was intravenously injected twice with a four‐day interval between injections. At the time of sacrifice, major organs were analyzed by H&E staining. To assess the repeated toxicity of ACP52CGK, twenty‐four 6‐weeks‐old ICR mice (twelve males and twelve females) were used, dividing them into two groups of six mice each: one group received saline, and the other received 100 mg kg^−1 of ACP52CGK. […] Body weight, water and feed consumption were measured every 3 days after injection. […] Major organs were weighed and analyzed by H&E staining. H&E‐stained tissue sections were analyzed and photographed, and the representative histological images were recorded. […]
A-C) Anticancer effects of ACP52C in xenograft model mice. […] Data are expressed as means ± SD, and the number […]
effective tumor targeting. […] The estimated residual levels of Cy5-ACP52C in the body over time were determined by quantifying the fluorescence intensity of images (right). RL50 represents the required time for a 50% retention of fluorescence level. (F) Bright field and fluorescence images of the […]

Data set [3] has as its system A431 epidermoid carcinoma. Kind of data set: A431 CDX mouse model. Format: in vivo. The note with it: intravenous injection every 2 or 3 days from day 14. As to the method:
as §1

In data set [4] the test system is normal cells derived from humans or mouse. Kind of data set: MTT growth inhibition in normal cells. Format: cell-based, human. The note with it: concentrations up to 10 µM. The source says:
Figure S3. Anticancer effect of Pep #5-2 truncated and substitution mutants
A) Names and peptide sequences of each mutant. Peptides corresponding to each Pep #5-2 truncated or substitution mutant are linked to a cell penetration peptide, iRGD (highlighted with yellow boxes). B-E) Cell growth inhibition profiles and GI50 values of each mutant in representative cancer cell lines. GI50 values estimated from duplicated data are expressed as means ± SD . Data are presented as means ± SD of two independent biological replicates. Anticancer effect of ACP52C, ACP52-51C, ACP52-52C, and ACP52-4C (B), amino acid substitution mutants of ACP52 -4C (C), and ACP52C, ACP52-4C, ACP52-31C, and ACP52-32C (D). Cell growth inhibition was teste d in cells using MTT assay over peptide dose at 48 h after peptide treatment, and GI50 values estimated from duplicated data are expressed as means ± SD. ( E) Summary of GI50 values of each mutant in representative cancer cell lines. GI 50 values estimated from duplicated data are expressed as means ± SD. Two-tailed unpaired Student’s t-tests, ***P < 0.001; ns: non-significant. […]

The source of these data is article PMC10667816, “A Cell‐Penetrant Peptide Disrupting the Transcription Factor CP2c Complexes Induces Cancer‐Specific Synthetic Lethality” (Advanced Science, 2023).

Where a SMILES comes first, the peptide text is derived from it.

Consider `CC(=O)N[C@@H](CC(N)=O)C(=O)N[C@@H](Cc1ccc(O)cc1)C(=O)N1CCC[C@H]1C(=O)N[C@@H](CCC(N)=O)C(=O)N[C@@H](CCCNC(=N)N)C(=O)N1CCC[C@H]1C(=O)N[C@@H](CS)C(=O)N[C@@H](CCCNC(=N)N)C(=O)NCC(=O)N[C@@H](CC(=O)O)C(=O)N[C@@H](CCCCN)C(=O)NCC(=O)N1CCC[C@H]1C(=O)N[C@@H](CC(=O)O)C(=O)N[C@@H](CS)C(N)=O` [ACP52C] (Ac-NYPQRPCRGDKGPDC-NH2), for which the tumor weight entry (with U343 glioma cells; in data set [3]) was “significantly reduced tumor weight” each time. Further, the growth inhibition entry in data set [1] was “minimal to zero growth inhibition”; in data set [4], “did not show any growth inhibition”. Besides, the adverse side effects entry in data set [2] was “did not exhibit any adverse side effects”.
